The CombiSolv-Exp solvation set (Vermeire and Green 2021)

Assay: solvent given as SMILES

CCCC
Settings	solvation free energy, 298 K [kcal/mol]
in C1CCC2CCCCC2C1	-2.25
in C1COCCO1	-2.13
in CC1COC(=O)O1	-1.19
in CC#N	-1.49
in CC(=O)N(C)C	-1.75
in CC(C)(C)O	-2.07
in CC(C)=O	-2.13
in CC(C)CCO	-2.02
in CC(C)CO	-2.03
in CC(C)O	-2.03
in CC(CC(C)(C)C)CC(C)(C)CC(C)(C)C	-2.97
in CCC(C)(C)O	-2.16
in CCC(C)=O	-2.31
in CCC(C)CO	-2.03
in CCC(O)CC	-2.07
in CCCC(C)O	-2.03
in CCCCC	-2.61
in CCCCCC	-2.55
in CCCCCCC	-2.54
in CCCCCCCC	-2.49
in CCCCCCCCC	-2.43
in CCCCCCCCCC	-2.43
in CCCCCCCCCCCC	-2.32
in CCCCCCCCCCCCC	-2.31
in CCCCCCCCCCCCCC	-2.23
in CCCCCCCCCCCCCCC	-2.24
in CCCCCCCCCCCCCCCC	-2.21
in CCCCCCCCO	-2.09
in CCCCCCCO	-1.96
in CCCCCO	-2.03
in CCCCO	-1.87
in CCCCOCCCC	-2.44
in CCCO	-1.98
in CCO	-1.91
in CN1CCCC1=O	-1.56
in CN(C)C=O	-1.47
in CN(C)P(=O)(N(C)C)N(C)C	-1.85
in CO	-1.73
in COC(C)=O	-1.95
in COCCOCCO	-1.36
in COCCOCCOC	-1.89
in COCCOCCOCCOC	-1.64
in COCCOCCOCCOCCOC	-1.62
in CS(C)=O	-0.99
in Cc1ccc(C)cc1	-2.33
in Cc1cccc(C)c1	-2.34
in Cc1ccccc1C	-2.31
in ClC(Cl)(Cl)Cl	-2.67
in Clc1ccccc1	-2.32
in Ic1ccccc1	-2.05
in N#Cc1ccccc1	-1.93
in NC=O	-0.12
in Nc1ccccc1	-1.4
in O	2.07
in O=CN1CCOCC1	-0.91
in OC1CCCCC1	-1.8
in OCCCOCCCO	-1.24
in OCCO	-0.29
in OCc1ccccc1	-1.51
in c1ccccc1	-2.39

Cc1ccccc1N
Settings	solvation free energy, 298 K [kcal/mol]
in CC(C)CC(C)(C)C	-6.37
in CCCCCC	-6.13
in CCCCCCC	-6.22
in CCCCCCCC	-6.34
in CCCCCCCCCC	-6.64
in Cc1cccc(C)c1	-7.32
in Cc1ccccc1C	-7.39
in O	-5.55

CCC1CO1 (centres undefined)
Settings	solvation free energy, 298 K [kcal/mol]
in CC(C)O	-3.72
in COC(=O)OC	-4.11
in COC(C)=O	-4.16
in ClC(Cl)Cl	-4.9
in O	-2.93

Clc1cc(Cl)c(-c2c(Cl)c(Cl)cc(Cl)c2Cl)cc1Cl
Settings	solvation free energy, 298 K [kcal/mol]
in O	-2.77

CCCCCCCCCC(=O)O
Settings	solvation free energy, 298 K [kcal/mol]
in O	-5.28

O=[N+]([O-])c1cccc(Cl)c1Cl
Settings	solvation free energy, 298 K [kcal/mol]
in C1CCCCC1	-8.4
in CC(C)O	-8.56
in CCCCCC	-7.97
in CCCCCCC	-8.07
in CCCCO	-8.71
in CCCO	-8.65
in CCOC(C)=O	-9.93
in ClC(Cl)(Cl)Cl	-9.46
in O	-4.22

Cc1ccnc(C)c1
Settings	solvation free energy, 298 K [kcal/mol]
in O	-4.86

CCc1cccc(O)c1
Settings	solvation free energy, 298 K [kcal/mol]
in O	-6.25

CCCC1CCCCC1
Settings	solvation free energy, 298 K [kcal/mol]
in CN1CCCC1=O	-4.57
in NC=O	-1.91
in O	1.8

Nc1ccc(Cl)cc1
Settings	solvation free energy, 298 K [kcal/mol]
in O	-5.91

c1ccc2c(c1)cc1ccc3cccc4ccc2c1c34
Settings	solvation free energy, 298 K [kcal/mol]
in CCCCCCCCC=CCCCCCCCC(=O)OCC(COC(=O)CCCCCCCC=CCCCCCCCC)OC(=O)CCCCCCCC=CCCCCCCCC	-16.7

CC(C)CC(=O)CC(=O)CC(C)C
Settings	solvation free energy, 298 K [kcal/mol]
in O	-4.42

c1ccc2c(c1)CCC2
Settings	solvation free energy, 298 K [kcal/mol]
in O	-1.42

Clc1cc(Cl)cc(-c2cc(Cl)ccc2Cl)c1
Settings	solvation free energy, 298 K [kcal/mol]
in O	-2.73

CC(C)c1ccc2c(c1)CCC1C(C)(C)CCCC21C (centres undefined)
Settings	solvation free energy, 298 K [kcal/mol]
in O	-0.37

Oc1ccccc1Br
Settings	solvation free energy, 298 K [kcal/mol]
in CC(C)CC(C)(C)C	-6.25
in CCCCCC	-6.52
in CCCCCCC	-6.49
in CCCCCCCC	-6.47
in CCCCCCCCCC	-6.44
in Cc1ccc(C)cc1	-7.18
in Cc1cccc(C)c1	-7.27
in Cc1ccccc1C	-7.22
in O	-5.06
